Values quoted from earlier work, collected in patent publication US20140088145A1 (Teva Pharmaceutical Industries, Ltd., priority 2012, published 2014).

What was measured:
[1] = test system: Huntington's disease patients; conditions: 45 mg daily or 90 mg daily for 6 months
[2] = test system: patients with HD
[3] = test system: Huntington's disease patients; conditions: twice-daily doses of 45 mg over 12 weeks
[4] = in vivo

Structure (SMILES): CCCN1CCC(c2cccc(S(C)(=O)=O)c2)CC1 [pridopidine, 4-[3-(methylsulfonyl)phenyl]-1-propyl-piperidine]
- tertiary endpoint UHDRS-TMS (changes in motor function) and individual items within the mMS (gait, dysarthria) [1]: statistically significant effect of treatment
- symptomatic relief incl. hand movements, gait and balance [2]: significant symptomatic relief
- effect on total motor function [3]: significant effect on total motor function

Structure (SMILES): C#CCN[C@@H]1CCc2ccccc21 [rasagiline, R(+)-N-propargyl-l-aminoindan]
- absolute bioavailability [4]: about 36%
